Laboratory results: patent publication US5312923A, “Process for preparing fibrinogen receptor antagonists” (Merck & Co., Inc., priority 1993, dated 1994)

Test system: ADP-stimulated platelets
Experiment: Inhibition of ADP-stimulated platelet aggregation (gel-filtered human platelets)
Format: cell-based
Conditions: read-out: IC50 (concentration required to inhibit aggregation by 50% relative to a control lacking the compound), gel-filtered human platelets 2×10^8 per ml, fibrinogen 100 ug/ml, Ca^2+ 1 mM, 10 mM ADP, 37° C.
Description: The activity of these fibrinogen receptor antagonists is illustrated below. One test used to evaluate fibrinogen receptor antagonist activity is based on evaluation of inhibition of ADP-stimulated platelets. Aggregation requires that fibrinogen bind to and occupy the platelet fibrinogen receptor site. Inhibitors of fibrinogen binding inhibit aggregation. […] Platelet aggregation is measured at 37° C. in a Chronolog aggregometer. The reaction mixture contains gel-filtered human platelets (2×10^8 per ml), fibrinogen (100 micrograms per ml (ug/ml)), Ca^2+ (1 mM), and the fibrinogen receptor antagonists tested. The aggregation is initiated by adding […] ADP 1 minute after the other components are added. The reaction is then allowed to proceed for at least 2 minutes. The extent of inhibition of aggregation is expressed as the percentage of the rate of aggregation observed in the absence of inhibitor. […] Inhibition of ADP-stimulated platelets is shown below in Table 1, which compares the concentration (dosage) of fibrinogen receptor antagonist required to inhibit aggregation by 50% relative to a control lacking the fibrinogen receptor antagonist.

Row | Structure (SMILES) | IC50
1 | O=C(O)[C@H](Cc1ccc(OCCCCC2CCNCC2)cc1)NS(=O)(=O)CCc1ccccc1 | 0.029 µM
2 | CS(=O)(=O)N[C@@H](Cc1ccc(OCCCCC2CCNCC2)cc1)C(=O)O | 0.063 µM

Stronger by IC50, values ahead:

Row | IC50 | Structure (SMILES)
3 | 0.015 µM | CCCCS(=O)(=O)N[C@@H](Cc1ccc(OCCCCC2CCNCC2)cc1)C(=O)O
4 | 0.018 µM | O=C(O)[C@H](Cc1ccc(OCCCCC2CCNCC2)cc1)NS(=O)(=O)Cc1ccccc1
5 | 0.018 µM | O=C(O)[C@H](Cc1ccc(OCCCCC2CCNCC2)cc1)NS(=O)(=O)c1ccccc1
